Reference: patent US20230386662A1, “RAPID AND DIRECT IDENTIFICATION AND DETERMINATION OF URINE BACTERIAL SUSCEPTIBILITY TO ANTIBIOTICS” (B. G. NEGEV TECHNOLOGIES AND APPLICATIONS LTD., AT …, priority 2020, published 2023)

Columns and labels:
Format in all cases: cell-based
E. coli isolates = assay: Susceptibility of E. coli urine isolates to antibiotics by the classical method VITEK2; design: key to Bacterial susceptibility category label: sensitive (S); resistant (R); conditions: for R (number of isolates resistant to the antibiotic) / S (number of isolates sensitive to the antibiotic): E. coli isolates from urine of UTI patients, 567 isolates studied
From the text: (§1) The present inventors studied 1005 different bacterial isolates derived directly from urine samples of UTIs patients, as follows:
(§2) These isolates were identified at a species level as well as their known susceptibility to most common used antibiotics, using the classical methods MALDI-TOF and VITEK2, respectively.
The samples where then processed for spectrometric measurements, by purifying the infecting bacteria directly from the urine as described herein above. A subset consisting of ten E. coli isolates was randomly selected, as detailed in table 1.

[1] = test system: Klebsiella pneumonia isolates; assay: Susceptibility of Klebsiella pneumonia urine isolates to antibiotics by the classical method VITEK2; conditions: Klebsiella pneumonia isolates from urine of UTI patients, 220 isolates studied
From the text: as §1, §2
FIGS. 7A-7B present the average second derivative IR spectra of Klebsiella pneumonia, in the 900-1800 cm^−1 region grouped as sensitive of resistant to: Amoxicillin (panel a), Ceftazidime (panel c), Ceftriaxone (panel e) and Cefuroxime (panel g). The ROC curves of the classification of these antibiotics are respectively presented in panels (b), (d), (f) and (h). […] The performances of the RF classifier for the classification between Klebsiella pneumonia isolates sensitive and resistant to the tested antibiotics are summarized in Table 4 similar to E. coli (Table 3).

[2] = test system: Pseudomonas aeruginosa isolates; assay: Susceptibility of Pseudomonas aeruginosa urine isolates to antibiotics by the classical method VITEK2; conditions: Pseudomonas aeruginosa isolates from urine of UTI patients, 121 isolates studied
From the text: as §1
These isolates were identified at a species level as well as their known susceptibility to most common used antibiotics, using the classical methods MALDI-TOF and VITEK2, respectively. […]

Row | Compound | R (number of isolates resistant to the antibiotic) (E. coli isolates) | S (number of isolates sensitive to the antibiotic) (E. coli isolates) | R (number of isolates resistant to the antibiotic) [1] | S (number of isolates sensitive to the antibiotic) [1] | Bacterial susceptibility category label (E. coli isolates; E. coli isolate 306358) | Bacterial susceptibility category label (E. coli isolates; E. coli isolate 306365) | Bacterial susceptibility category label (E. coli isolates; E. coli isolate 306366) | Bacterial susceptibility category label (E. coli isolates; E. coli isolate 306382) | Bacterial susceptibility category label (E. coli isolates; E. coli isolate 307201) | Bacterial susceptibility category label (E. coli isolates; E. coli isolate 307212) | Bacterial susceptibility category label (E. coli isolates; E. coli isolate 307234) | Bacterial susceptibility category label (E. coli isolates; E. coli isolate 307368) | Bacterial susceptibility category label (E. coli isolates; E. coli isolate 307395) | Bacterial susceptibility category label (E. coli isolates; E. coli isolate 307402) | R (number of isolates resistant to the antibiotic) [2] | S (number of isolates sensitive to the antibiotic) [2]
1 | O=C1CN(/N=C/c2ccc([N+](=O)[O-])o2)C(=O)N1 [Nitrofurantoin] | 47 | 502 | 150 | 62 | – | – | – | – | – | – | – | – | – | – | – | –
2 | CO/N=C(\C(=O)N[C@@H]1C(=O)N2C(C(=O)O)=C(COC(N)=O)CS[C@H]12)c1ccco1 [Cefuroxime] | 196 | 371 | 99 | 121 | S | S | R | S | S | S | S | S | S | S | – | –
3 | CC1=C(C(=O)O)N2C(=O)[C@@H](NC(=O)[C@H](N)c3ccccc3)[C@H]2SC1 [Cephalexin] | 167 | 372 | 90 | 121 | – | – | – | – | – | – | – | – | – | – | – | –
4 | CC1(C)S[C@@H]2[C@H](NC(=O)[C@H](N)c3ccccc3)C(=O)N2[C@H]1C(=O)O [Ampicillin] | 384 | 181 | – | – | S | R | R | S | R | S | R | S | R | R | – | –
5 | C[C@H]1COc2c(N3CCN(C)CC3)c(F)cc3c(=O)c(C(=O)O)cn1c23 [Levofloxacin] | – | – | – | – | – | – | – | – | – | – | – | – | – | – | 33 | 63
6 | CC1(C)S[C@@H]2[C@H](NC(=O)[C@H](N)c3ccc(O)cc3)C(=O)N2[C@H]1C(=O)O [Amoxicillin] | 170 | 397 | 61 | 159 | – | – | – | – | – | – | – | – | – | – | – | –
7 | NC[C@H]1O[C@H](O[C@H]2[C@H](O)[C@@H](O[C@H]3O[C@H](CO)[C@@H](O)[C@H](N)[C@H]3O)[C@H](N)C[C@@H]2N)[C@H](N)C[C@@H]1O [Tobramycin] | – | – | – | – | – | – | – | – | – | – | – | – | – | – | 15 | 79
8 | CC(C)(O/N=C(\C(=O)N[C@@H]1C(=O)N2C(C(=O)[O-])=C(C[n+]3ccccc3)CS[C@H]12)c1csc(N)n1)C(=O)O [Ceftazidime] | 159 | 408 | 91 | 129 | – | – | – | – | – | – | – | – | – | – | 19 | 78
9 | Amoxicillin ClavulA | – | – | – | – | S | – | – | S | S | S | S | S | S | – | – | –
10 | Sulfamethoxa-Trimeth | 194 | 371 | 92 | 126 | S | R | S | S | R | R | R | S | R | S | – | –
11 | CCN1CCN(C(=O)N[C@@H](C(=O)N[C@@H]2C(=O)N3[C@@H]2SC(C)(C)[C@@H]3C(=O)O)c2ccccc2)C(=O)C1=O [Piperacillin] | – | – | – | – | – | – | – | – | – | – | – | – | – | – | 23 | 59
12 | Piperacill-Tazobactam | 58 | 506 | 41 | 179 | – | – | – | – | – | – | – | – | – | – | 10 | 76
13 | C[C@@H](O)[C@H]1C(=O)N2C(C(=O)O)=C(SCCN=CN)C[C@H]12 [Imipenem] | – | – | – | – | – | – | – | – | – | – | – | – | – | – | 18 | 72
14 | CO/N=C(\C(=O)N[C@@H]1C(=O)N2C(C(=O)OC(C)OC(C)=O)=C(COC(N)=O)CS[C@H]12)c1ccco1 (stereo partly drawn) [Cefuroxime-Axetil] | 190 | 351 | 95 | 112 | – | – | – | – | – | – | – | – | – | – | – | –
15 | CO/N=C(\C(=O)N[C@@H]1C(=O)N2C(C(=O)O)=C(CSc3nc(=O)c(=O)[nH]n3C)CS[C@H]12)c1csc(N)n1 [Ceftriaxone] | 160 | 407 | 87 | 133 | S | S | R | S | S | S | S | S | S | S | – | –
16 | C[C@@H](O)[C@H]1C(=O)N2C(C(=O)O)=C(S[C@@H]3CN[C@H](C(=O)N(C)C)C3)[C@H](C)[C@H]12 [Meropenem] | – | – | – | – | – | – | – | – | – | – | – | – | – | – | 20 | 77
17 | Gentamicin | 68 | 498 | 41 | 179 | – | – | – | – | – | – | – | – | – | – | 17 | 80
